Reference: patent publication US20240018125A1, “CYCLIC ISOTHIOUREA DERIVATIVES AS CXCR4 MODULATORS” (ERMIUM THERAPEUTICS, priority 2020, published 2024)
Structures can show the parent of a compound that is named as a salt.

System: peripheral blood mononuclear cells (PBMCs) from healthy donors
Assay: IFN production by R848-activated PBMCs, quantified with twINNE luciferase reporter cell line
Format: cell-based, human
Conditions: Homo sapiens, PBMC; read-out: IC50 of anti-inflammatory activity (IFN production by activated PBMCs)
Outline: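 Healthy-donor PBMCs (4.10^6/mL, RPMI/10% FBS) were pre-treated with compound, then stimulated with R848 at 5 μg/mL for 24 h. Supernatants were put on twINNE cells, which carry luciferase under five ISREs, for 24 h, and Bright-Glo luminescence was read. IC50 values came from variable-slope dose-response fits.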

**Q.** For `c1ccc(CC2CN=C(SCc3ccncc3)N2)cc1` (centres unmarked) [Example 56, 4-(((5-benzyl-4,5-dihydro-1H-imidazol-2-yl)thio)methyl)pyridine dihydrochloride], which IC50 is on record?
**A.** The IC50 was 10 to 32 µM.

**Q.** Which IC50 does the source give for `c1ccc(CC2CCN(CCSC3=NCc4ccccc4N3)C2)cc1` (centres unmarked) [Example 154, 2-((2-(3-benzylpyrrolidin-1-yl)ethyl)thio)-1,4-dihydroquinazoline dihydrochloride] here?
**A.** Its IC50 is over 32 µM.

**Q.** How did the IC50 turn out when `c1ccc2c(c1)CN=C(SCc1ccncc1)NC2` [Example 189, 3-((pyridin-4-ylmethyl)thio)-2,5-dihydro-1H-benzo[e][1,3]diazepine dihydrochloride] was run?
**A.** The IC50 was over 32 µM.

**Q.** Which IC50 does the source give for `CN1CCC(CCSC2=NCc3cc(Cl)ccc3N2)C1` (centres unmarked) [Example 177, 6-chloro-2-((2-(1-methylpyrrolidin-3-yl)ethyl)thio)-1,4-dihydroquinazoline dihydrochloride] here?
**A.** The IC50 was at most 10 µM.

**Q.** Which IC50 does the source give for `Clc1ccc2c(c1)CN1C(=N2)SC(Br)=C1CSC1=NCc2ccccc2N1` [Example 79, 2-bromo-7-chloro-3-(((1,4-dihydroquinazolin-2-yl)thio)methyl)-5H-thiazolo[2,3-b]quinazoline dihydrochloride] here?
**A.** Its IC50 is at most 10 µM.

**Q.** For `c1ccc(C2CCCN2CCSC2=NCc3ccccc3N2)cc1` (centres unmarked) [Example 128, 2-((2-(2-phenylpyrrolidin-1-yl)ethyl)thio)-1,4-dihydroquinazoline dihydrochloride], which IC50 is on record?
**A.** The IC50 was at most 10 µM.

**Q.** How did the IC50 turn out when `CC1CCN(CCSC2=NCc3ccccc3N2)C1` (centres unmarked) [Example 138, 2-((2-(3-methylpyrrolidin-1-yl)ethyl)thio)-1,4-dihydroquinazoline dihydrochloride] was run?
**A.** The IC50 was at most 10 µM.

**Q.** For `CC1(C)N=C(SCCCCN2CCCC2)Nc2ccccc21` [Example 160, 4,4-dimethyl-2-((4-(pyrrolidin-1-yl)butyl)thio)-1,4-dihydroquinazoline dihydrochloride], which IC50 is on record?
**A.** The IC50 was over 32 µM.

**Q.** `CC1(c2ccccc2)CN=C(SCCN2CCCC2)N1` (centres unmarked) [Example 131, 5-methyl-5-phenyl-2-((2-(pyrrolidin-1-yl)ethyl)thio)-4,5-dihydro-1H-imidazole dihydrochloride] was tested. Which IC50 did it give?
**A.** The IC50 was 10 to 32 µM.

**Q.** How did the IC50 turn out when `c1ccc(CC2CN=C(SCCN3CCCC3)N2)cc1` (centres unmarked) [Example 54, 5-benzyl-2-((2-(pyrrolidin-1-yl)ethyl)thio)-4,5-dihydro-1H-imidazole dihydrochloride] was run?
**A.** Its IC50 is 10 to 32 µM.

**Q.** Which IC50 does the source give for `Fc1cccc2c1CN=C(SCC1=CSC3=Nc4ccc(Cl)cc4CN13)N2` [Example 80, 7-chloro-3-(((5-fluoro-1,4-dihydroquinazolin-2-yl)thio)methyl)-5H-thiazolo[2,3-b]quinazoline dihydrochloride] here?
**A.** Its IC50 is at most 10 µM.

**Q.** With `Clc1nccc2sc(CSC3=NCC(Cc4ccccc4)N3)cc12` (centres unmarked) [Example 61, 2-(((5-benzyl-4,5-dihydro-1H-imidazol-2-yl)thio)methyl)-4-chlorothieno[3,2-c]pyridine dihydrochloride] as the molecule, how does the IC50 read?
**A.** The IC50 was at most 10 µM.

**Q.** For `CC1(C)N=C(SCC2=CSC3=Nc4ccc(Cl)cc4CN23)Nc2ccccc21` [Example 75, 7-chloro-3-(((4,4-dimethyl-1,4-dihydroquinazolin-2-yl)thio)methyl)-5H-thiazolo[2,3-b]quinazoline dihydrochloride], which IC50 is on record?
**A.** The IC50 was over 32 µM.

**Q.** With `CC1(C)N=C(SCCN2CCCC2)Nc2ccccc21` [Example 78, 4,4-dimethyl-2-((2-(pyrrolidin-1-yl)ethyl)thio)-1,4-dihydroquinazoline dihydrochloride] as the molecule, how does the IC50 read?
**A.** The IC50 was over 32 µM.

**Q.** With `c1ccc2c(c1)CCN=C(SCCN1CCCC1)N2` [Example 182, 2-((2-(pyrrolidin-1-yl)ethyl)thio)-4,5-dihydro-1H-benzo[d][1,3]diazepine dihydrochloride] as the molecule, how does the IC50 read?
**A.** Its IC50 is 10 to 32 µM.

**Q.** `Brc1ccc2c(c1)N=C1SC=C(CSC3=NCc4ccccc4N3)N1C2` [Example 70, 8-bromo-3-(((1,4-dihydroquinazolin-2-yl)thio)methyl)-5H-thiazolo[2,3-b]quinazoline dihydrochloride] was tested. Which IC50 did it give?
**A.** The IC50 was at most 10 µM.

Same assay, conditions: PBMCs from 2 healthy donors, R848 5 μg/mL, IFN in supernatant by twINNE luciferase reporter; IT1t value is mean of at least 7 independent sets; read-out: IC50 of anti-inflammatory activity (IFN production by activated PBMCs)

**Q.** Which IC50 does the source give for `CC1(C)CN2C(CSC(=NC3CCCCC3)NC3CCCCC3)=CSC2=N1` [IT1t, reference compound] here?
**A.** The IC50 was 32 µM.
